The source made the active and inactive calls. The calls are words filed in the database; no cut-off is given here.
What was measured:
[1] = biological target: T1, Receptor-type tyrosine-protein kinase FLT3 (Homo sapiens, UniProt P36888); assay: biochemical; type: cell-based, Sf9
T1 sequence (P36888 whole entry): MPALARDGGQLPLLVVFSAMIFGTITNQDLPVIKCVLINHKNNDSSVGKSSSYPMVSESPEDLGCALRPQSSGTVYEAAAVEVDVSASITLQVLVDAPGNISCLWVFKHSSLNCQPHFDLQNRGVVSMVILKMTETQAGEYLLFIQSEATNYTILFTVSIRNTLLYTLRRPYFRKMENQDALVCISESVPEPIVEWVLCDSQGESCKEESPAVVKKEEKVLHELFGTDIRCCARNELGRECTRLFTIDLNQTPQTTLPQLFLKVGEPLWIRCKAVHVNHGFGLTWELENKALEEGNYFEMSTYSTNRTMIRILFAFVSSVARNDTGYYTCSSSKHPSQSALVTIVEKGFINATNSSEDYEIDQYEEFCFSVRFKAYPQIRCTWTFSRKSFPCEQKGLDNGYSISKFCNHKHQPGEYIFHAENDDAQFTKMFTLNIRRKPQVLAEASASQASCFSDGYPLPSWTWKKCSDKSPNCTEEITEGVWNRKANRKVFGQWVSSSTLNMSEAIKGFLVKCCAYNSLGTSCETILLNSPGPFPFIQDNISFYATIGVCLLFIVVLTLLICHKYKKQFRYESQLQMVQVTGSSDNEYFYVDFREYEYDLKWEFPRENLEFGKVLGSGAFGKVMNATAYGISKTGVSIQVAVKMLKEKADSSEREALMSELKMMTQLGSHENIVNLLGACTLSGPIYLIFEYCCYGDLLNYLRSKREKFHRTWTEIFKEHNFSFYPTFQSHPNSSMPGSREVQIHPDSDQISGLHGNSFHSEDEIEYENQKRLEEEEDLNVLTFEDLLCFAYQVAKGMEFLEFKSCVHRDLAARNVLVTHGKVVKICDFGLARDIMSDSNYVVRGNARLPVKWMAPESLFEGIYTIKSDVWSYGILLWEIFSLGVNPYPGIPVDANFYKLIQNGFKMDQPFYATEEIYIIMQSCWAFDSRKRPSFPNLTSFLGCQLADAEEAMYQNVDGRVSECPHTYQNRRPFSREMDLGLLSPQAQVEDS
Description: Inhibition of N-terminal GST/His6-fused recombinant wild type human FLT3 (R571 to S993 residues) expressed in Sf9 insect cells using poly (Ala,Glu,Lys,Tyr) 6:2:5:1 hydrobromide as substrate in presence of [gamma-33P]ATP

[2] = biological target: Receptor-type tyrosine-protein kinase FLT3 (Homo sapiens) (UniProt P36888); assay: Inhibition of human N-terminal GST-tagged FLT3 cytoplasmic domain expressed in baculovirus expression system at 10 nM
MV4-11 [3] = assay: Cell cycle arrest in human MV4-11 cells assessed as accumulation at S phase at 0.01 nM after 24 hrs by propidium iodide staining-based flow cytometric method (reference value: 28.1%); type: functional
MV4-11 [4] = assay: Cell cycle arrest in human MV4-11 cells assessed as accumulation at G2/M phase at 0.01 nM after 24 hrs by propidium iodide staining-based flow cytometric method (reference value: 15.9%); type: functional
MV4-11 [5] = assay: Cell cycle arrest in human MV4-11 cells assessed as accumulation at sub-G1 phase at 0.1 nM after 24 hrs by propidium iodide staining-based flow cytometric method (reference value: 9.2%); type: functional
MV4-11 [6] = assay: Cell cycle arrest in human MV4-11 cells assessed as accumulation at G1 phase at 0.1 nM after 24 hrs by propidium iodide staining-based flow cytometric method (reference value: 56%); type: functional
MV4-11 [7] = assay: Cell cycle arrest in human MV4-11 cells assessed as accumulation at G2/M phase at 0.1 nM after 24 hrs by propidium iodide staining-based flow cytometric method (reference value: 15.9%); type: functional
MV4-11 [8] = assay: Cell cycle arrest in human MV4-11 cells assessed as accumulation at G2/M phase at 1 nM after 24 hrs by propidium iodide staining-based flow cytometric method (reference value: 15.9%); type: functional
MV4-11 [9] = assay: Cell cycle arrest in human MV4-11 cells assessed as accumulation at S phase at 10 nM after 24 hrs by propidium iodide staining-based flow cytometric method (reference value: 28.1%); type: functional
MV4-11 [10] = assay: Induction of apoptosis in human MV4-11 cells assessed as decrease in Mcl-1 levels at 10 to 100 nM after 24 hrs by immunoblot method; type: functional, cell-based
MV4-11 [11] = assay: Induction of apoptosis in human MV4-11 cells assessed as increase in caspase-3/7 activity using Ac-DEVD-AMC substrate after 24 hrs by fluorescence assay; type: functional, cell-based
K562 = assay: Induction of apoptosis in human K562 cells assessed as increase in caspase-3/7 activity using Ac-DEVD-AMC substrate after 24 hrs by fluorescence assay; type: functional, cell-based
Rattus norvegicus [12] = assay: Toxicity in Wistar rat assessed as clinical signs of intoxication at 200 mg/kg, po measured over 15 days; type: organism-based; conditions: in vivo, 360 h
Rattus norvegicus [13] = assay: Toxicity in Wistar rat assessed as pathological macroscopic changes at 200 mg/kg, po after 15 days; type: organism-based; conditions: in vivo, 360 h
[14] = biological target: Dual specificity protein kinase CLK1 (Homo sapiens) (UniProt P49759); conditions: 10 nM
Dual specificity protein kinase CLK1 (Homo sapiens), sequence (P49759 whole entry, looked up): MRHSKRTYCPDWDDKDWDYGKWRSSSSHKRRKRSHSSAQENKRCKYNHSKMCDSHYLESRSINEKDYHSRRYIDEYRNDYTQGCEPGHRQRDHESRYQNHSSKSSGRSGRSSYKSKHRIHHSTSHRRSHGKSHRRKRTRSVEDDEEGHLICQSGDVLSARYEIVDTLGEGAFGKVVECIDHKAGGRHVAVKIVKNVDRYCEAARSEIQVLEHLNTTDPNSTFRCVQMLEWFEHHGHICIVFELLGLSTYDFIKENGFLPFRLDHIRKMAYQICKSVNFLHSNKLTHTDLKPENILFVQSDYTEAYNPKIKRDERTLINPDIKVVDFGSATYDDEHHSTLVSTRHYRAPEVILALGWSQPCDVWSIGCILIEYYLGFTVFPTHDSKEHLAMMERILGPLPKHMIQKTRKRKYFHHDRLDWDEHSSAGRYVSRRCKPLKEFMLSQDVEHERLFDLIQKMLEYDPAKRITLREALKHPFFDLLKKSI
Description: Inhibition of human N-terminal GST-tagged CLK1 catalytic domain expressed in baculovirus expression system at 10 nM relative to control

[15] = biological target: High affinity nerve growth factor receptor (Homo sapiens) (UniProt P04629); conditions: 10 nM
High affinity nerve growth factor receptor (Homo sapiens), sequence (P04629 33-796 limits assumed): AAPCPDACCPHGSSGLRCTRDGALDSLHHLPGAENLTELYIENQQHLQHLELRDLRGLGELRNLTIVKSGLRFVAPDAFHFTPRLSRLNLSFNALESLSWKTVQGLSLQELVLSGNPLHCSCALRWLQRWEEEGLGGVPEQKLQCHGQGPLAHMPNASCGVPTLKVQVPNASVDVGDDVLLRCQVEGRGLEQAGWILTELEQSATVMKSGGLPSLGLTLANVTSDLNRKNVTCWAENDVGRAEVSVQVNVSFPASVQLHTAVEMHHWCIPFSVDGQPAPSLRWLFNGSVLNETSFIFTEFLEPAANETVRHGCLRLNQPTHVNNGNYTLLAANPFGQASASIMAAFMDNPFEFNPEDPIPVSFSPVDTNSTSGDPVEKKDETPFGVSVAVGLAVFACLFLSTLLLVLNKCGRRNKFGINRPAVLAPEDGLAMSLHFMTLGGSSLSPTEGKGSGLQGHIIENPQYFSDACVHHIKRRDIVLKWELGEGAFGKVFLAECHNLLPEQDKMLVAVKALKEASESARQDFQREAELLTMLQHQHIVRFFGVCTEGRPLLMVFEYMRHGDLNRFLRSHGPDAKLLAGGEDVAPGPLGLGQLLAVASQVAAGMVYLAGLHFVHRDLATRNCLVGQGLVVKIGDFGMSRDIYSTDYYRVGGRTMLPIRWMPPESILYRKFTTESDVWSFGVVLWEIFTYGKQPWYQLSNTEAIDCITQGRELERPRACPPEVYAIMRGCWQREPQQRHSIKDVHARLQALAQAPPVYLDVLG
Description: Inhibition of human N-terminal GST-tagged TRK cytoplasmic domain expressed in baculovirus expression system at 10 nM relative to control

[16] = biological target: Serine/threonine-protein kinase SIK1 (Homo sapiens) (UniProt P57059); conditions: 10 nM
Serine/threonine-protein kinase SIK1 (Homo sapiens), sequence (P57059 whole entry): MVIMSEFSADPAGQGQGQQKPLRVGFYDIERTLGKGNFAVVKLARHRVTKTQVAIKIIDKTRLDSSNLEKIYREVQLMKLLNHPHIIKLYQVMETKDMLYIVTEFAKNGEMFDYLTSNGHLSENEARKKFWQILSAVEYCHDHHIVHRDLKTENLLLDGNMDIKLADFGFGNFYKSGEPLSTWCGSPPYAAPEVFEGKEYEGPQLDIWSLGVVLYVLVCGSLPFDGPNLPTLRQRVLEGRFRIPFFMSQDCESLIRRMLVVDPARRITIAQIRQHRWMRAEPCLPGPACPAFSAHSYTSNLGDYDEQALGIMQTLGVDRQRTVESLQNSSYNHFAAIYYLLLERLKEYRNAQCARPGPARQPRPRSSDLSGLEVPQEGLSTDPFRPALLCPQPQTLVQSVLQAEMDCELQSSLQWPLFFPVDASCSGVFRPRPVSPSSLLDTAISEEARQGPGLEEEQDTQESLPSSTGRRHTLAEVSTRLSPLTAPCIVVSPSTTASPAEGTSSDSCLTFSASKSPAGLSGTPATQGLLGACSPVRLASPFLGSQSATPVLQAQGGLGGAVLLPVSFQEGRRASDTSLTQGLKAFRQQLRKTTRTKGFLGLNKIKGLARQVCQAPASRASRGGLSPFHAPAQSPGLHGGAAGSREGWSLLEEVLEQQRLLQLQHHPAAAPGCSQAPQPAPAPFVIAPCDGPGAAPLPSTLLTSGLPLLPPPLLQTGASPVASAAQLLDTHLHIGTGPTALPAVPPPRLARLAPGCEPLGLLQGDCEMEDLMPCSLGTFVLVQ
Description: Inhibition of full length human N-terminal GST-tagged SIK expressed in baculovirus expression system at 10 nM relative to control

[17] = test system: Mast/stem cell growth factor receptor Kit (Homo sapiens), P10721 [D816V]; conditions: 10 nM
Mast/stem cell growth factor receptor Kit (Homo sapiens), P10721 [D816V], sequence (P10721 whole entry D816V): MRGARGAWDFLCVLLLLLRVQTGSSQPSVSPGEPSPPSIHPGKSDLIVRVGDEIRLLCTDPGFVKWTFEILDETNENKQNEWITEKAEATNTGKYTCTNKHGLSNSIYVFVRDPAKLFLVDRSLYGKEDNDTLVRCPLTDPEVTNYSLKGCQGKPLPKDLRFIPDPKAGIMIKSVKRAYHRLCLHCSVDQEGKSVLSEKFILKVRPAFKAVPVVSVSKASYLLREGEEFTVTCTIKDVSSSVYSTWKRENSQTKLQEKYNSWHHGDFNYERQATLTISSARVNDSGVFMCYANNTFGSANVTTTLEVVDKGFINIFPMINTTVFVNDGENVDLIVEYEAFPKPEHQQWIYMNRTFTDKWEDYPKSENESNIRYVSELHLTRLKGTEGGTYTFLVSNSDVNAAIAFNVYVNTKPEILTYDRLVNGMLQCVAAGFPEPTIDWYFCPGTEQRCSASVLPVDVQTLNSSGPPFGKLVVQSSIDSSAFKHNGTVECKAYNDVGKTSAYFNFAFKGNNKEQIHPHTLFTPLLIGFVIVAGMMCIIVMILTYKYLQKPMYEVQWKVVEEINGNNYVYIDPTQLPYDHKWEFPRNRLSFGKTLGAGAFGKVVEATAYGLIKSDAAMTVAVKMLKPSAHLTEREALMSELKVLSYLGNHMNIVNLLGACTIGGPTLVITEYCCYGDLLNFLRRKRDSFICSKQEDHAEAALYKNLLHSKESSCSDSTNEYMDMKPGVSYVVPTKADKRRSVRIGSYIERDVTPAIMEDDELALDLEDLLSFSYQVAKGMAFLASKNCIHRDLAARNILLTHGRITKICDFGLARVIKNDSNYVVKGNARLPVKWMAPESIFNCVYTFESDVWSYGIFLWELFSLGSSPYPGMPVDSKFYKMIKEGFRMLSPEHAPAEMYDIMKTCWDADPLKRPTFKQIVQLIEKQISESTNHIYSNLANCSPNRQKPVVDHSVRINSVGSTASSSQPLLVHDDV
Description: Inhibition of human N-terminal GST-tagged KIT D816V mutant cytoplasmic domain expressed in baculovirus expression system at 10 nM relative to control

[18] = test system: Receptor-type tyrosine-protein kinase FLT3 (Homo sapiens), P36888 [UNDEFINED MUTATION]; conditions: MV4-11, at 1 nM
Description: Inhibition of FLT3 ITD mutant autophosphorylation at Y589/591 in human MV4-11 cells at 1 nM after 1 hr by immunoblot analysis

[19] = test system: Receptor-type tyrosine-protein kinase FLT3 (Homo sapiens), P36888 [UNDEFINED MUTATION]; conditions: MV4-11, at 0.01 to 100 nM
Description: Inhibition of FLT3 ITD mutant in human MV4-11 cells assessed as decrease in STAT5 phosphorylation at Y694 at 0.01 to 100 nM after 1 hr by immunoblot analysis

[20] = test system: Receptor-type tyrosine-protein kinase FLT3 (Homo sapiens), P36888 [UNDEFINED MUTATION]; conditions: MV4-11, at 0.01 to 100 nM; remark: listed apart in the source
Description: Inhibition of FLT3 ITD mutant in human MV4-11 cells assessed as decrease in ERK1/2 phosphorylation at T202/Y204 at 0.01 to 100 nM after 1 hr by immunoblot analysis

[21] = test system: Receptor-type tyrosine-protein kinase FLT3 (Homo sapiens), P36888 [UNDEFINED MUTATION]; conditions: MV4-11, at 0.01 to 100 nM; remark: listed apart in the source
Description: Inhibition of FLT3 ITD mutant in human MV4-11 cells assessed as decrease in MEK1/2 phosphorylation at S217/221 at 0.01 to 100 nM after 1 hr by immunoblot analysis

[22] = test system: Receptor-type tyrosine-protein kinase FLT3 (Homo sapiens), P36888 [UNDEFINED MUTATION]; conditions: MV4-11, at 0.01 to 100 nM; remark: listed apart in the source
Description: Inhibition of FLT3 ITD mutant in human MV4-11 cells assessed as decrease in AKT phosphorylation at S473 at 0.01 to 100 nM after 1 hr by immunoblot analysis

Kasumi 1 = assay: cells; conditions: Homo sapiens, Kasumi 1, 72 h
THP-1 = assay: cells; conditions: Homo sapiens, THP-1, 72 h
MCF7 = assay: cells; conditions: Homo sapiens, MCF7, 72 h
in vitro [23] = conditions: human, MRC5 cells
in vitro [24] = conditions: human, BJ cells

SMILES: N[C@H]1CC[C@H](Nc2nc(Nc3ccc(CN4CCOCC4)cc3)c3ncn(C4CCCC4)c3n2)CC1
- IC50 [1]: 0.013 µM
- inhibition [2]: Active
- Activity (MV4-11 [3]): 29.9%
- Activity (MV4-11 [4]): 14.5%
- Activity (MV4-11 [5]): 11.8%
- Activity (MV4-11 [6]): 59.7%
- Activity (MV4-11 [7]): 12.3%
- Activity (MV4-11 [8]): 1.1%
- Activity (MV4-11 [9]): 2.7%
- Activity (MV4-11 [10]): Active
- Activity (MV4-11 [11]): Active
- Activity (K562): inactive
- Activity (Rattus norvegicus [12]): Non-Toxic
- Activity (Rattus norvegicus [13]): Non-Toxic
- inhibition [14]: > 90%
- inhibition [15]: > 90%
- inhibition [16]: > 90%
- inhibition [17]: > 90%
- inhibition [18]: Active
- inhibition [19]: Active
- inhibition [20]: Active
- inhibition [21]: Active
- inhibition [22]: Active
- GI50 (Kasumi 1): 0.513 µM
- GI50 (THP-1): 0.713 µM
- GI50 (MCF7): 0.197 µM
- GI50 at 72 h (in vitro [23]): 20.6 µM
- GI50 at 72 h (in vitro [24]): 12.7 µM
